Experimental data from publication PMC9296036, “A peptide interfering with the dimerization of oncogenic KITENIN protein and its stability suppresses colorectal tumour progression” (Clinical and Translational Medicine, 2022).
Ends that are not written are not given here.

Test system: CT-26/KITENIN-V5 tumours
Assay: Syngeneic subcutaneous tumour model, CT-26/KITENIN-V5 cells in BALB/c mice
Type: in vivo, mouse
Conditions: CT-26/KITENIN-V5, KDIP 1 and 5 mg/kg intravenously every other day for 2 weeks, dose dependent
Description: The CT‐26 cell/syngeneic mouse model was used to investigate the in vivo effects of KDIP on colorectal tumourigenesis, as it is reported that a syngeneic mouse tumour model is good for testing the anticancer effects of candidate substances.[25], [26] Male Balb/c mice (5‐week old) were purchased from DaMul Science, Korea and acclimated for 1 week prior to subcutaneous injection of syngeneic CT‐26/EV (3 × 10^6) or CT‐26/KITENIN cells (1 × 10^6) into the dorsum. Tumour volume was calculated using the following equation: V = 1/2 × a × b […], where a and b are the longest and shortest diameters of the tumour (in millimetres), respectively. Tumour volume was measured every other day for 14 days to verify the effects of KDIP. […]
Effect of KAI1 C‐terminal interacting tetraspanin (KITENIN) dimerization‐interfering peptide (KDIP) on tumour growth and metastasis in in vivo mouse model of colorectal cancer (CRC). […] For the evaluation of metastasis, total fluorescence emitted from liver nodules expressing iRFP was measured and counted (left panel) or metastatic tumour growth was counted as nodules that migrated to the surface of the liver, and a metastatic score was obtained by multiplying it with size (middle panel). Metastatic score or total fluorescence is represented as mean ± SEM. […]

YARVRRRGPRRWRLVSDEAV [KDIP]
tumour volume (in words): significantly reduced
